Measured values taken from patent publication US9695119B2, “Methionine analogs and methods of using same” (Bioxiness Pharmaceuticals, Inc., priority 2008, dated 2017).

What was measured:
Experiment in all cases: Broad spectrum bacterial growth inhibition, 96-well plate, M9 media
Format in all cases: cell-based
B. subtillus = system: B. subtillus; set-up: unit not given here
Method: (§1) Table 2 and FIG. 2 summarizes a series of studies, which were performed to test eradication of bacterial growth using various species (representative strains of gram positive and gram negative microorganisms commonly associated with wound infection). A 96-well plate format was used to culture different bacteria in M9 minimal media supplemented with glucose (M9) or same media supplemented with a range of concentrations of various analogues (Methionine, I-AA and I-AB). Experiments were carried out in duplicate.

E. coli = system: E. coli; set-up: unit not given here
Method: as §1

P. aeruginosa = system: P. aeruginosa; set-up: unit not given here
Method: as §1

S. aureus = system: S. aureus
Method: as §1

S. epidermids = system: S. epidermids
Method: as §1

Ps. sturtzeri = system: Ps. sturtzeri
Method: as §1

In the case of `CSCC[C@H](NC(=O)CN)C(=O)NO.Cl` [I-AB, (S)-2-(2-aminoacetamido)-N-hydroxy-4-(methylthio)butanamide hydrochloride], the “Broad Spectrum Bacterial Growth Inhibition Data, B. subtillus” value (B. subtillus; Conc. 0.0, well 4, M9 media) is reported as 0.5, the “Broad Spectrum Bacterial Growth Inhibition Data, B. subtillus” value (B. subtillus; Conc. 0.1, well 5, M9 media) is reported as 0.5 and the “Broad Spectrum Bacterial Growth Inhibition Data, B. subtillus” value (B. subtillus; Conc. 0.2, well 6, M9 media) is reported as 0.4. For the same molecule, the “Broad Spectrum Bacterial Growth Inhibition Data, B. subtillus” value (B. subtillus; Conc. 0.4, well 7, M9 media) was 0.4, the “Broad Spectrum Bacterial Growth Inhibition Data, B. subtillus” value (B. subtillus; Conc. 0.8, well 8, M9 media) was 0.2 and the “Broad Spectrum Bacterial Growth Inhibition Data, B. subtillus” value (B. subtillus; Conc. 1.6, well 9, M9 media) was 0.2. For the same molecule, the “Broad Spectrum Bacterial Growth Inhibition Data, B. subtillus” value (B. subtillus; Conc. 3.1, well 10, M9 media) was 0.2, the “Broad Spectrum Bacterial Growth Inhibition Data, B. subtillus” value (B. subtillus; Conc. 6.3, well 11, M9 media) was 0.2 and the “Broad Spectrum Bacterial Growth Inhibition Data, B. subtillus” value (B. subtillus; Conc. 12.5, well 12, M9 media) was 0.2. For the same molecule, the “Broad Spectrum Bacterial Growth Inhibition Data, E. coli” value (E. coli; Conc. 0.0, well 4, M9 media) was 0.4, the “Broad Spectrum Bacterial Growth Inhibition Data, E. coli” value (E. coli; Conc. 0.1, well 5, M9 media) was 0.4 and the “Broad Spectrum Bacterial Growth Inhibition Data, E. coli” value (E. coli; Conc. 0.2, well 6, M9 media) was 0.4. The “Broad Spectrum Bacterial Growth Inhibition Data, E. coli” value (E. coli; Conc. 0.4, well 7, M9 media) was 0.4, the “Broad Spectrum Bacterial Growth Inhibition Data, E. coli” value (E. coli; Conc. 0.8, well 8, M9 media) was 0.5 and the “Broad Spectrum Bacterial Growth Inhibition Data, E. coli” value (E. coli; Conc. 1.6, well 9, M9 media) was 0.4. The “Broad Spectrum Bacterial Growth Inhibition Data, E. coli” value (E. coli; Conc. 3.1, well 10, M9 media) was 0.2, the “Broad Spectrum Bacterial Growth Inhibition Data, E. coli” value (E. coli; Conc. 6.3, well 11, M9 media) was 0.2 and the “Broad Spectrum Bacterial Growth Inhibition Data, E. coli” value (E. coli; Conc. 12.5, well 12, M9 media) was 0.2. For the same molecule, the “Broad Spectrum Bacterial Growth Inhibition Data, P. aeruginosa” value (P. aeruginosa; Conc. 0.0, well 4, M9 media) was 1.1, the “Broad Spectrum Bacterial Growth Inhibition Data, P. aeruginosa” value (P. aeruginosa; Conc. 0.1, well 5, M9 media) was 1.0 and the “Broad Spectrum Bacterial Growth Inhibition Data, P. aeruginosa” value (P. aeruginosa; Conc. 0.2, well 6, M9 media) was 1.0. For the same molecule, the “Broad Spectrum Bacterial Growth Inhibition Data, P. aeruginosa” value (P. aeruginosa; Conc. 0.4, well 7, M9 media) was 1.0, the “Broad Spectrum Bacterial Growth Inhibition Data, P. aeruginosa” value (P. aeruginosa; Conc. 0.8, well 8, M9 media) was 1.0 and the “Broad Spectrum Bacterial Growth Inhibition Data, P. aeruginosa” value (P. aeruginosa; Conc. 1.6, well 9, M9 media) was 1.0. For the same molecule, the “Broad Spectrum Bacterial Growth Inhibition Data, P. aeruginosa” value (P. aeruginosa; Conc. 3.1, well 10, M9 media) was 1.0, the “Broad Spectrum Bacterial Growth Inhibition Data, P. aeruginosa” value (P. aeruginosa; Conc. 6.3, well 11, M9 media) was 0.1 and the “Broad Spectrum Bacterial Growth Inhibition Data, P. aeruginosa” value (P. aeruginosa; Conc. 12.5, well 12, M9 media) was 0.1. The “Broad Spectrum Bacterial Growth Inhibition Data, S. aureus” value (S. aureus; Conc. 0.0, well 4, M9 media) was 0.6, the “Broad Spectrum Bacterial Growth Inhibition Data, S. aureus” value (S. aureus; Conc. 0.1, well 5, M9 media) was 0.6 and the “Broad Spectrum Bacterial Growth Inhibition Data, S. aureus” value (S. aureus; Conc. 0.2, well 6, M9 media) was 0.5. For the same molecule, the “Broad Spectrum Bacterial Growth Inhibition Data, S. aureus” value (S. aureus; Conc. 0.4, well 7, M9 media) was 0.5, the “Broad Spectrum Bacterial Growth Inhibition Data, S. aureus” value (S. aureus; Conc. 0.8, well 8, M9 media) was 0.5 and the “Broad Spectrum Bacterial Growth Inhibition Data, S. aureus” value (S. aureus; Conc. 1.6, well 9, M9 media) was 0.4. The “Broad Spectrum Bacterial Growth Inhibition Data, S. aureus” value (S. aureus; Conc. 3.1, well 10, M9 media) was 0.2, the “Broad Spectrum Bacterial Growth Inhibition Data, S. aureus” value (S. aureus; Conc. 6.3, well 11, M9 media) was 0.1 and the “Broad Spectrum Bacterial Growth Inhibition Data, S. aureus” value (S. aureus; Conc. 12.5, well 12, M9 media) was 0.1. For the same molecule, the “Broad Spectrum Bacterial Growth Inhibition Data, S. epidermids” value (S. epidermids; Conc. 0.0, well 4, M9 media) was 0.7, the “Broad Spectrum Bacterial Growth Inhibition Data, S. epidermids” value (S. epidermids; Conc. 0.1, well 5, M9 media) was 0.7 and the “Broad Spectrum Bacterial Growth Inhibition Data, S. epidermids” value (S. epidermids; Conc. 0.2, well 6, M9 media) was 0.6. For the same molecule, the “Broad Spectrum Bacterial Growth Inhibition Data, S. epidermids” value (S. epidermids; Conc. 0.4, well 7, M9 media) was 0.3, the “Broad Spectrum Bacterial Growth Inhibition Data, S. epidermids” value (S. epidermids; Conc. 0.8, well 8, M9 media) was 0.2 and the “Broad Spectrum Bacterial Growth Inhibition Data, S. epidermids” value (S. epidermids; Conc. 1.6, well 9, M9 media) was 0.2. The “Broad Spectrum Bacterial Growth Inhibition Data, S. epidermids” value (S. epidermids; Conc. 3.1, well 10, M9 media) was 0.1, the “Broad Spectrum Bacterial Growth Inhibition Data, S. epidermids” value (S. epidermids; Conc. 6.3, well 11, M9 media) was 0.1 and the “Broad Spectrum Bacterial Growth Inhibition Data, S. epidermids” value (S. epidermids; Conc. 12.5, well 12, M9 media) was 0.1. The “Broad Spectrum Bacterial Growth Inhibition Data, Ps. sturtzeri” value (Ps. sturtzeri; Conc. 0.0, well 4, M9 media) was 0.5, the “Broad Spectrum Bacterial Growth Inhibition Data, Ps. sturtzeri” value (Ps. sturtzeri; Conc. 0.1, well 5, M9 media) was 0.5 and the “Broad Spectrum Bacterial Growth Inhibition Data, Ps. sturtzeri” value (Ps. sturtzeri; Conc. 0.2, well 6, M9 media) was 0.3. For the same molecule, the “Broad Spectrum Bacterial Growth Inhibition Data, Ps. sturtzeri” value (Ps. sturtzeri; Conc. 0.4, well 7, M9 media) was 0.3, the “Broad Spectrum Bacterial Growth Inhibition Data, Ps. sturtzeri” value (Ps. sturtzeri; Conc. 0.8, well 8, M9 media) was 0.2 and the “Broad Spectrum Bacterial Growth Inhibition Data, Ps. sturtzeri” value (Ps. sturtzeri; Conc. 1.6, well 9, M9 media) was 0.2. The “Broad Spectrum Bacterial Growth Inhibition Data, Ps. sturtzeri” value (Ps. sturtzeri; Conc. 3.1, well 10, M9 media) was 0.2, the “Broad Spectrum Bacterial Growth Inhibition Data, Ps. sturtzeri” value (Ps. sturtzeri; Conc. 6.3, well 11, M9 media) was 0.2 and the “Broad Spectrum Bacterial Growth Inhibition Data, Ps. sturtzeri” value (Ps. sturtzeri; Conc. 12.5, well 12, M9 media) was 0.2.
